According to the supplement of paper PMC10307832:

Tests used:
Assay in all cases: relative viability (nuclei count vs DMSO), 5 days (fraction); higher = more cells survive
[1] = compound: CN1CCN(CC1)C2=CC(=C(C=C2)NC3=NC=C4C(=N3)N(C5=CC=CC=C5C(=O)N4C)C)OC [XMD8-85] + CC(=O)Nc1cccc(-n2c(=O)n(C3CC3)c(=O)c3c(Nc4ccc(I)cc4F)n(C)c(=O)c(C)c32)c1 [Trametinib] (partner 0.02 µM)
Procedure, shortened: (§1)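 Relative viability is defined as nuclei in treated wells over nuclei in vehicle wells. Duplicate plates were run and medians reported. Lung cancer cell lines in 1536-well plates were dosed by pin tool one day after seeding, with one drug or with a fixed anchor-drug dose plus five library-drug doses (not always all listed) in √10 steps, and nuclei were counted after 5 days.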

[2] = compound: CN1CCN(CC1)C2=CC(=C(C=C2)NC3=NC=C4C(=N3)N(C5=CC=CC=C5C(=O)N4C)C)OC [XMD8-85] + C[C@]1(O)C[C@@H](c2nc(-c3ccc4ccc(-c5ccccc5)nc4c3)c3c(N)nccn32)C1 [Linsitinib] (partner 1 µM)
Procedure, shortened: as §1

[3] = compound: O=C(O)C(Cc1ccccc1[N+](=O)[O-])=NNc1nc(-c2ccc(Cl)c(Cl)c2)cs1 (mixture of isomers) [4EGI-1] + CCNC(=O)c1noc(-c2cc(C(C)C)c(O)cc2O)c1-c1ccc(CN2CCOCC2)cc1 [Luminespib] (partner 0.01 µM)
Procedure, shortened: as §1

[4] = compound: O=C(O)C(Cc1ccccc1[N+](=O)[O-])=NNc1nc(-c2ccc(Cl)c(Cl)c2)cs1 (mixture of isomers) [4EGI-1] + O=C(c1cc(Cc2n[nH]c(=O)c3ccccc23)ccc1F)N1CCN(C(=O)C2CC2)CC1 [Olaparib] (partner 8 µM)
Procedure, shortened: as §1

NCI-H1792
relative viability ([1]; first compound 0.253 µM): 0.483 | relative viability ([1]; first compound 0.8 µM): 0.308 | relative viability ([1]; first compound 2.53 µM): 0.463 | relative viability ([1]; first compound 8 µM): 0.271 | relative viability ([2]; first compound 0.08 µM): 0.47 | relative viability ([2]; first compound 0.253 µM): 0.521 | relative viability ([2]; first compound 2.53 µM): 0.463 | relative viability ([2]; first compound 8 µM): 0.556 | relative viability ([3]; first compound 0.5 µM): 0.917 | relative viability ([3]; first compound 1.581 µM): 0.414 | relative viability ([3]; first compound 5 µM): 0.411 | relative viability ([3]; first compound 15.81 µM): 0.37 | relative viability ([3]; first compound 50 µM): 0.236 | relative viability ([4]; first compound 0.5 µM): 0.412 | relative viability ([4]; first compound 1.581 µM): 0.496 | relative viability ([4]; first compound 5 µM): 0.359 | relative viability ([4]; first compound 15.81 µM): 0.36 | relative viability ([4]; first compound 50 µM): 0.165
